This test deals with human prostate cancer cells PC3. Nature of the test: MTT assay, proliferation of human prostate cancer cells PC3. To be noted: for IC50: Homo sapiens, PC3, MTT, 48 h, 0-32 μM, read-out: IC50 on the proliferation of human prostate cancer cells PC3; for inhibitory effects on human prostate cancer cells PC3 (in words): PC3, summary of Table 4; for effect compared with control gossypol I-A9, PC3: PC3, versus gossypol I-A9. It counts as cell-based.

In the case of `Cc1c(O)c(O)c(C=O)c2c1C(c1ccc(C(F)(F)F)cc1)CC2` (stereo not drawn) [Compound I-5], the IC50 amounted to 7.09 µM; the “inhibitory effects on human prostate cancer cells PC3 (in words)” value (“inhibitory effects” for short) was “significant inhibitory effects”; the “effect compared with control gossypol I-A9, PC3” value was “superior than the gossypol I-A9”.

Regarding `Cc1cc(COCc2ccccc2)c(C=O)c(O)c1O` [Compound I-21, 6-((benzyloxy)methyl)-2,3-dihydroxy-4-methylbenzaldehyde], the IC50 worked out at 8.09 µM; the “inhibitory effects” value was “significant inhibitory effects”; the “effect compared with control gossypol I-A9, PC3” value is reported as “superior than the gossypol I-A9”.

As to `Cc1c(O)c(O)c(C=O)c(CC=C(c2ccccc2)c2ccccc2)c1-c1ccccc1` [Compound I-24], the IC50 turned out to be 7.24 µM; the “inhibitory effects” value is “significant inhibitory effects”; the “effect compared with control gossypol I-A9, PC3” value was “superior than the gossypol I-A9”.

As for `Cc1c(O)c(O)c(C=O)c(COCc2ccccc2)c1-c1ccccc1` [Compound I-25], the IC50 amounted to 8.32 µM; the “inhibitory effects” value is “significant inhibitory effects”; the “effect compared with control gossypol I-A9, PC3” value is on record as “superior than the gossypol I-A9”.

On to `CCc1cc(COCc2ccccc2)c(C=O)c(O)c1O` [Compound I-31], for which the IC50 stood at 7.25 µM; the “inhibitory effects” value is given as “significant inhibitory effects”; the “effect compared with control gossypol I-A9, PC3” value is “superior than the gossypol I-A9”.

In the case of `COc1cc(OC)c(Cc2c(C=O)c(O)c(O)c(C)c2-c2ccc(Br)cc2)c(OC)c1` [Compound I-41], the IC50 worked out at 1.76 µM; the “inhibitory effects” value is on record as “significant inhibitory effects”; the “effect compared with control gossypol I-A9, PC3” value is on record as “superior than the gossypol I-A9”.

On to `COc1cc(OC)c(Cc2c(C=O)c(O)c(O)c(C)c2-c2ccc([N+](=O)[O-])cc2)c(OC)c1` [Compound I-42, 4,5-dihydroxy-6-methyl-4′-nitro-2-(2,4,6-trimethoxybenzyl)-(1,1′-biphenyl)-3-carbaldehyde], for which the IC50 was 2.8 µM; the “inhibitory effects” value is on record as “significant inhibitory effects”; the “effect compared with control gossypol I-A9, PC3” value is recorded as “superior than the gossypol I-A9”.

As to `CCc1c(O)c(O)c(C=O)c(Cc2c(OC)cc(OC)cc2OC)c1-c1ccccc1` [Compound I-44], the IC50 came out at 2.91 µM; the “inhibitory effects” value is recorded as “significant inhibitory effects”; the “effect compared with control gossypol I-A9, PC3” value was “superior than the gossypol I-A9”.

Regarding `Cc1c(O)c(O)c(C=O)c(COCc2ccccc2)c1-c1ccc(C(C)(C)C)cc1` [Compound I-46], the IC50 is 6.41 µM; the “inhibitory effects” value is “significant inhibitory effects”; the “effect compared with control gossypol I-A9, PC3” value is listed as “superior than the gossypol I-A9”.

`Cc1c(O)c(O)c(C=O)c(COCc2ccccc2)c1-c1cccc2ccccc12` [Compound I-47]: the IC50 is 8.12 µM; the “inhibitory effects” value is given as “significant inhibitory effects”; the “effect compared with control gossypol I-A9, PC3” value was “superior than the gossypol I-A9”.

In the case of `Cc1c(O)c(O)c(C=O)c(COCc2ccccc2)c1-c1ccsc1` [Compound I-48], the IC50 was determined as 22.4 µM and the “inhibitory effects” value is reported as “significant inhibitory effects”.

Turning to `COc1cc(OC)c(Cc2cc(C(C)C)c(O)c(O)c2C=O)c(OC)c1` [Compound I-51], the IC50 was 5.27 µM; the “inhibitory effects” value is listed as “significant inhibitory effects”; the “effect compared with control gossypol I-A9, PC3” value is reported as “superior than the gossypol I-A9”.

As for `CC(C)c1cc(COCc2ccccc2)c(C=O)c(O)c1O` [Compound I-53], the IC50 was determined as 6.65 µM; the “inhibitory effects” value is “significant inhibitory effects”; the “effect compared with control gossypol I-A9, PC3” value is “superior than the gossypol I-A9”.

On to `CC(C)c1c(O)c(O)c(C=O)c(COCc2ccccc2)c1-c1ccccc1` [Compound I-55], for which the IC50 was 2.05 µM; the “inhibitory effects” value is on record as “significant inhibitory effects”; the “effect compared with control gossypol I-A9, PC3” value was “superior than the gossypol I-A9”.

Consider `COC(=O)c1c(COCc2ccc(OC)cc2)cc(C)c(OC)c1OC` [Compound I-100], for which the “inhibitory effects” value was “significant inhibitory effects”.

In the case of `COc1cc(OC)c(Cc2c(C=O)c(O)c(O)c(C)c2-c2ccco2)c(OC)c1` [I-A6, 3-(furan-2-yl)-5,6-dihydroxy-4-methyl-2-(2,4,6-trimethoxybenzyl) benzaldehyde], the IC50 stood at 3.45 µM; the “inhibitory effects” value is “significant inhibitory effects”; the “effect compared with control gossypol I-A9, PC3” value is listed as “superior than the gossypol I-A9”.

As to `Cc1c(O)c(O)c(C=O)c(COCc2ccccc2)c1Br` [I-A8, 2-((benzyloxy)methyl)-3-bromo-5,6-dihydroxy-4-methylbenzaldehyde], the IC50 worked out at 2.37 µM; the “inhibitory effects” value is listed as “significant inhibitory effects”; the “effect compared with control gossypol I-A9, PC3” value is given as “superior than the gossypol I-A9”.

The record behind these values is patent publication US11376228B2 (Genifarm Laboratories Inc, priority 2018, dated 2022).
